{"source": "patent US11364228B2", "about": "(Ovid Therapeutics Inc., priority 2019, dated 2022)", "origin": "cited, not measured here", "key": {"[1]": {"test_system": "patients with a history of drug abuse", "conditions": "patients with a history of drug abuse who received gaboxadol"}, "[2]": {"test_system": "sleep onset and sleep maintenance", "conditions": "three-month efficacy study, treatment of insomnia"}, "[3]": {"conditions": "conventional pharmaceutical compositions such as tablets and capsules"}}, "data": [{"smiles": "Oc1noc2c1CCNC2", "note": "[Gaboxadol, 4,5,6,7-tetrahydroisoxazolo [5,4-c]pyridine-3-ol]", "values": [{"measurement": "psychiatric adverse events", "setting": "[1]", "value": "steep increase in psychiatric adverse events"}, {"measurement": "half-life", "setting": "[3]", "value": "1.5 to 2", "unit": "h"}, {"measurement": "time to reach peak concentration", "setting": "[3]", "value": "≤ 30", "unit": "min"}, {"measurement": "half-life (t1/2)", "setting": "plasma half-life post administration", "value": "1.5 to 2", "unit": "h"}, {"measurement": "effects in sleep onset and sleep maintenance", "setting": "[2]", "value": "failed to show significant effects"}]}]}
